Data on one substance can be found in patent publication US20220249596A1, “PIC1 PEPTIDE COMPOSITIONS AND METHODS OF USE THEREOF FOR TREATMENT OF HYPOXIC ISCHEMIC ENCEPHALOPATHY” (REALTA HOLDINGS, LLC, priority 2019, published 2022).

No end group written: not given here.

Type in all cases: in vivo, rat
One assay concerns C1q. Briefly: Immunofluorescence quantification of C1q in brain. The note with it: ipsilateral cortex and hippocampus, 48 hours, versus NT and HT, P<0.05. Here is the method: TUNEL/C1q staining was performed as follows. Five (5) μm paraffin-embedded coronal brain sections on slides were incubated (1 hour; 60° C.), deparaffinized with xylene, and rehydrated with ethanol (100%, 95%, 70%; RT). Endogenous peroxidase activity was blocked (0.3% H2O2/MeOH; 10 minutes; RT), and heat induced antigen retrieval was performed (when indicated) using 10 mM sodium citrate, pH 6.0. 10% normal serum (from the same species as the host of the secondary antibody) was used to block and to dilute antibodies. Samples were washed twice for 10 min each, in PBST between each step.
After blocking for one hour at room temperature, tissues were incubated with 1:300 goat anti-Iba1 (Abcam), 1:250 goat anti-GFAP (Abcam), 1:500 chicken anti-NeuN (Millipore, Billerica, Mass.), or 1:100 mouse anti-NeuN (Millipore) in host appropriate blocking serum overnight at 4° C. Primary antibodies were probed with 1:500 donkey anti-goat (Abcam), goat anti-chicken (Abcam), or goat anti-mouse (Abcam) AF 488 or 568 in appropriate blocking serum for one hour at room temperature. Tissues were blocked a second time with NGS for one hour at room temperature. […]

The nature of assay [1]: Novel object recognition test. The note with it: 8 weeks after HIE, versus HT and NT animals, P<0.05. As to the method:
The novel object recognition test was performed at 8 weeks after HIE to test cognitive function by evaluating the differences in the exploration time of novel and familiar objects. The novel object recognition task tests for short-term, intermediate and long-term memory without the need for external motivation, reward, or punishment. Results on the test are influenced by both hippocampal and cortical injury. The test is based on the concept that when animals are exposed to a familiar and a novel object, they spend more time exploring the novel object. It is thought that the recognition of novelty requires more cognitive skills from the subject.
Rats were trained for two days prior to novel object testing. During the training sessions, the rat was allowed to explore the testing chamber, a polycarbonate box (40×40 cm) with two identical objects for three minutes. On testing day, one of the familiar objects was replaced with a novel object, made with the same material but a different shape, and allowed to explore for three minutes. Video recordings of the interactions were reviewed by blinded investigators. Object exploration was defined as the rat directing its nose toward the object at a distance of less than 2 cm. The DINOR was calculated as ((time with novel object−time with familiar object))/(total time spent with objects).

The test system of a further assay is C3aR. Briefly: Whole brain C3aR expression, Western blotting and immunofluorescence. The note with it: PIC1 group versus NT animals, P<0.05. Here is the method:
After blocking for one hour at room temperature, tissues were incubated with 1:300 goat anti-Iba1 (Abcam), 1:250 goat anti-GFAP (Abcam), 1:500 chicken anti-NeuN (Millipore, Billerica, Mass.), or 1:100 mouse anti-NeuN (Millipore) in host appropriate blocking serum overnight at 4° C. Primary antibodies were probed with 1:500 donkey anti-goat (Abcam), goat anti-chicken (Abcam), or goat anti-mouse (Abcam) AF 488 or 568 in appropriate blocking serum for one hour at room temperature. Tissues were blocked a second time with NGS for one hour at room temperature. Samples were then probed with 1:300 mouse anti-C1q (Abcam), 1:300 rabbit anti-C9, 1:50 rabbit anti-MPO (Abcam), 1:200 rabbit anti-TMEM (Novus Bio, Centennial, Colo.), 1:100 rabbit anti-C3aR (Bioss), 1:100 Mouse anti-C5aR (Hycult), or 1:200 chicken anti-C3/C3a (Abcam) in NGS overnight at 4° C. and then with 1:500 goat anti-mouse, rabbit, or chicken (Abcam) AF 488 or 568 in NGS for one hour at room temperature.
Without wishing to be bound by theory, C3a is generated at the convergence of all known complement activation pathways (i.e., the classical, alternate and lectin pathways). To investigate further, C3aR levels in the brain were measured by Western blotting and immunofluorescence (FIG. 5). Western blotting was performed as follows. […]

As for “IALILEPICCQERAA-dPEG24 (cysteine pairing not given here) [PIC1]”, the C1q expression entry in the assay with C1q is recorded as “significant reduction”. Also, in assay [1], the “novel object recognition: proportion of time exploring the novel object” value is on record as “significantly higher proportion of time”. In addition, the “whole brain C3aR expression” value in the assay with C3aR is “significantly higher”.
